For 20 molecules, EC50 results are on record in patent US20240228504A1, “SUBSTITUTED TRICYCLIC AMIDES, ANALOGUES THEREOF, AND METHODS USING SAME” (Arbutus Biopharma Corporation, priority 2020, published 2024).

Structures are written as SMILES. pEC50: −log10 of the molar value.

What is called pEC50 is the EC50 on a negative log10 scale, so that one unit is a factor of ten.

The test system of one assay is HBV rcDNA in HepDE19 cells. Nature of the assay: HepDE19 assay with bDNA quantitation of HBV rcDNA. As to conditions: HepDE19 assay, inhibition of rcDNA formation, bDNA quantitation; read-out: DE-19bDNA EC50. It is filed as cell-based, hepatitis B virus.
For the molecule `CN(C(=O)c1ccc2c(c1)CCC2)C1COCc2[nH]c(=O)c3cc(F)ccc3c21` (single isomer, unassigned) [Compound 442, N-(8-Fluoro-6-oxo-1,4,5,6-tetrahydro-2H-pyrano[3,4-c]isoquinolin-1-yl)-N-methyl-2,3-dihydro-1H-indene-5-carboxamide], the negative logarithm of the EC50 (pEC50) is 4.72. Consider `CN(C(=O)c1ccc2c(c1)CCC2)C1COCc2[nH]c(=O)c3cc(F)ccc3c21` (single isomer, unassigned) [Compound 443, N-(8-Fluoro-6-oxo-1,4,5,6-tetrahydro-2H-pyrano[3,4-c]isoquinolin-1-yl)-N-methyl-2,3-dihydro-1H-indene-5-carboxamide], for which the pEC50 was 6.19. Take `CN(C(=O)c1ccc2scnc2c1)C1COCc2[nH]c(=O)c3cc(F)ccc3c21` (single isomer, unassigned) [Compound 444, N-(8-fluoro-6-oxo-1,4,5,6-tetrahydro-2H-pyrano[3,4-c]isoquinolin-1-yl)-N-methylbenzo[d]thiazole-5-carboxamide]: the pEC50 is 4.91.

For the molecule `CN(C(=O)c1ccc2scnc2c1)C1COCc2[nH]c(=O)c3cc(F)ccc3c21` (single isomer, unassigned) [Compound 445, N-(8-fluoro-6-oxo-1,4,5,6-tetrahydro-2H-pyrano[3,4-c]isoquinolin-1-yl)-N-methylbenzo[d]thiazole-5-carboxamide], the pEC50 was 6.15. Still for that read-out and setting: for `CN(C(=O)c1ccc2ncsc2c1)C1COCc2[nH]c(=O)c3cc(F)ccc3c21` (single isomer, unassigned) [Compound 446, N-(8-fluoro-6-oxo-1,4,5,6-tetrahydro-2H-pyrano[3,4-c]isoquinolin-1-yl)-N-methylbenzo[d]thiazole-6-carboxamide] the value was 4.80; for `CN(C(=O)c1ccc2ncsc2c1)C1COCc2[nH]c(=O)c3cc(F)ccc3c21` (single isomer, unassigned) [Compound 447, N-(8-fluoro-6-oxo-1,4,5,6-tetrahydro-2H-pyrano[3,4-c]isoquinolin-1-yl)-N-methylbenzo[d]thiazole-6-carboxamide], 6.03; for `CN(C(=O)c1cc2sc(Cl)cc2[nH]1)C1CNCc2[nH]c(=O)c3cc(F)c(F)cc3c21` (single isomer, unassigned) [Compound 453, 2-chloro-N-(8,9-difluoro-6-oxo-1,2,3,4,5,6-hexahydrobenzo[c][1,7]naphthyridin-1-yl)-N-methyl-4H-thieno[3,2-b]pyrrole-5-carboxamide], 5.66. Take `CN(C(=O)c1cc2sc(Cl)cc2[nH]1)C1CNCc2[nH]c(=O)c3cc(F)c(F)cc3c21` (single isomer, unassigned) [Compound 454, 2-chloro-N-(8,9-difluoro-6-oxo-1,2,3,4,5,6-hexahydrobenzo[c][1,7]naphthyridin-1-yl)-N-methyl-4H-thieno[3,2-b]pyrrole-5-carboxamide]: the pEC50 is 7.70. Take `Cc1cccc2[nH]c(C(=O)N(C)C3CNCc4[nH]c(=O)c5cc(F)c(F)cc5c43)cc12` (single isomer, unassigned) [Compound 456, N-(8,9-difluoro-6-oxo-1,2,3,4,5,6-hexahydrobenzo[c][1,7]naphthyridin-1-yl)-N,4-dimethyl-1H-indole-2-carboxamide]: the pEC50 was 5.66. As for `Cc1cccc2[nH]c(C(=O)N(C)C3CNCc4[nH]c(=O)c5cc(F)c(F)cc5c43)cc12` (single isomer, unassigned) [Compound 457, N-(8,9-difluoro-6-oxo-1,2,3,4,5,6-hexahydrobenzo[c][1,7]naphthyridin-1-yl)-N,4-dimethyl-1H-indole-2-carboxamide], the pEC50 was 8.00. As for `Cc1cc(F)cc2[nH]c(C(=O)N(C)C3CNCc4[nH]c(=O)c5cc(F)c(F)cc5c43)cc12` (single isomer, unassigned) [Compound 458, N-(8,9-difluoro-6-oxo-1,2,3,4,5,6-hexahydrobenzo[c][1,7]naphthyridin-1-yl)-6-fluoro-N,4-dimethyl-1H-indole-2-carboxamide], the pEC50 was 5.18. Regarding `Cc1cc(F)cc2[nH]c(C(=O)N(C)C3CNCc4[nH]c(=O)c5cc(F)c(F)cc5c43)cc12` (single isomer, unassigned) [Compound 459, N-(8,9-difluoro-6-oxo-1,2,3,4,5,6-hexahydrobenzo[c][1,7]naphthyridin-1-yl)-6-fluoro-N,4-dimethyl-1H-indole-2-carboxamide], the pEC50 is 8.00. The same measure, in the same setting: for `CN(C(=O)c1cc2c(Cl)cc(F)cc2[nH]1)C1CNCc2[nH]c(=O)c3cc(F)c(F)cc3c21` (single isomer, unassigned) [Compound 460, 4-chloro-N-(8,9-difluoro-6-oxo-1,2,3,4,5,6-hexahydrobenzo[c][1,7]naphthyridin-1-yl)-6-fluoro-N-methyl-1H-indole-2-carboxamide] the value was 4.95; for `CN(C(=O)c1cc2c(Cl)cc(F)cc2[nH]1)C1CNCc2[nH]c(=O)c3cc(F)c(F)cc3c21` (single isomer, unassigned) [Compound 461, 4-chloro-N-(8,9-difluoro-6-oxo-1,2,3,4,5,6-hexahydrobenzo[c][1,7]naphthyridin-1-yl)-6-fluoro-N-methyl-1H-indole-2-carboxamide], 7.52. The same measure, in the same setting: under `CN(C(=O)c1ccc2ncsc2c1)C1CNCc2[nH]c(=O)c3cc(F)c(F)cc3c21` (single isomer, unassigned) [Compound 465, N-(8,9-difluoro-6-oxo-1,2,3,4,5,6-hexahydrobenzo[c][1,7]naphthyridin-1-yl)-N-methylbenzo[d]thiazole-6-carboxamide] stands 5.49; under `CN(C(=O)c1cc2ccccc2[nH]1)C1CCCc2[nH]c(=O)c3cc(F)c(F)cc3c21` (single isomer, unassigned) [Compound 466, N-(8,9-Difluoro-6-oxo-1,2,3,4,5,6-hexahydrophenanthridin-1-yl)-N-methyl-1H-indole-2-carboxamide], 5.68. Consider `CN(C(=O)c1cc2ccccc2[nH]1)C1CCCc2[nH]c(=O)c3cc(F)c(F)cc3c21` (single isomer, unassigned) [Compound 467, N-(8,9-Difluoro-6-oxo-1,2,3,4,5,6-hexahydrophenanthridin-1-yl)-N-methyl-1H-indole-2-carboxamide], for which the pEC50 was 8.00.

Staying with this assay, now noted: Hepatitis B virus, HepDE19, HepDE19 assay, inhibition of rcDNA formation, bDNA quantitation; read-out: DE-19bDNA EC50.
Turning to `CN(C(=O)c1ccc2[nH]ncc2c1)C1COCc2[nH]c(=O)c3cc(F)ccc3c21` (single isomer, unassigned) [Compound 449, N-(8-fluoro-6-oxo-1,4,5,6-tetrahydro-2H-pyrano[3,4-c]isoquinolin-1-yl)-N-methyl-1H-indazole-5-carboxamide], the pEC50 was 5.25. Regarding `CN(C(=O)c1ccc2scnc2c1)C1CNCc2[nH]c(=O)c3cc(F)c(F)cc3c21` (single isomer, unassigned) [Compound 463, N-(8,9-difluoro-6-oxo-1,2,3,4,5,6-hexahydrobenzo[c][1,7]naphthyridin-1-yl)-N-methylbenzo[d]thiazole-5-carboxamide], the pEC50 was 5.70. On the same count and under the same terms, for `CN(C(=O)c1ccc2cn[nH]c2c1)C1COCc2[nH]c(=O)c3cc(F)ccc3c21` (single isomer, unassigned) [Compound 469, N-(8-fluoro-6-oxo-1,4,5,6-tetrahydro-2H-pyrano[3,4-c]isoquinolin-1-yl)-N-methyl-1H-indazole-6-carboxamide] the value was 5.66.
